US20250084095A1, “Aminopyrimidine Derivatives as Cyclin-Dependent Kinase Inhibitors” (Accutar Biotechnology Inc., priority 2023, published 2025)

Experiments:
22RV1 cells = test: Cell growth inhibition of 22RV1 cells (CellTiter-Glo); type: cell-based; settings: Homo sapiens, 22Rv1, 120 h, 5 days, CellTiter-Glo, read-out: 22RV1 Cell Growh GI50
Protocol: For cell growth assay, 22RV1 (ATCC, CRL-2505) cells were seeded in 96-well plates at 1000 cells/well in 90 μl of RPMI1640 growth medium containing 20% FBS and 1% Penicillin Streptomycin, and then incubated at 37° C. overnight. The following day, the test compound was administered to the cells by using 1000× compound stock solution prepared in DMSO at various concentrations. 1000× compound stock solution was first diluted in culturing medium to 10×, then 10 uL compound medium was added to each well in the cell plates. After administration of the compound, the cells were then incubated at 37° C. for 5 days. Upon completion, the plates were equilibrated at room temperature for approximately 10 min. 100 μl of CellTiter-Glo® Reagent (Promega) was added to each well. The plates were then incubated at room temperature for 10 min and luminescence was recorded by EnSpire plate reader (PerkinElmer).
22RV1 cells were obtained from American Type Culture Collection (ATCC, CRL-2505). 22RV1 cells were seeded in 96-well plates at 1000 cells/well in 90 μL of RPMI1640 growth medium containing 10% FBS and 1% Penicillin Streptomycin, and then incubated at 37° C. overnight. The following day, the test compound was administered to the cells by using 1000× compound stock solution prepared in DMSO at various concentrations. […], then 10 uL compound medium was added to each well in the cell plates. After administration of the compound, the cells were then incubated at […] for 5 days. Upon completion, the plates were equilibrated at room temperature for approximately 10 minutes. 100 μL of CellTiter-Glo® Reagent (Promega) was added to each well. The plates were then incubated at room temperature for 10 minutes and luminescence was recorded by EnSpire plate reader (PerkinElmer).

[1] = test system: Phospho-Rb (Ser807/811) in MCF7 cells; test: Phospho-Rb expression inhibition in MCF7 cells quantified by in cell Western; type: cell-based, human; settings: Homo sapiens, MCF7, 24 h, 24 hours, in cell Western, read-out: MCF7 pRb IC50
Protocol: MCF7 cells were obtained from American Type Culture Collection (ATCC, HTB-22). MCF7 cells were plated in 96-well plates (VWR #10062-900, or Coming #3904) in 90 μL culture medium at a density of 20,000 cells/well in the DMEM growth medium containing 10%/FBS and 1% Penicillin Streptomycin, and then incubated at 37° C. overnight. The following day, the test compound was administered to the cells by using 1000× compound stock solution prepared in DMSO at various concentrations. 1000× compound stock solution was first diluted in culturing medium to 10×, then 10 μL compound medium was added to each well in the cell plates. After administration of the compound, the cells were then incubated at 37° C. for 24 h. Upon completion, the cells were washed with PBS briefly. 150 μL/well of 4% formaldehyde was added and the plates were incubated at room temperature for 20 min. The cells were washed with PBS briefly, and permeabilized with 150 µL/well of ice cold 100% methanol for 10 min. The cells were washed with PBS briefly and blocked with 100 µL/well LI-COR blocking buffer for 1 h at room temperature with gentle shaking. The cells were incubated overnight at 4° C. with 50 μL primary antibody rabbit anti-Phospho-Rb (Ser807/811) (1: 500, Cell Signaling, #8516) and anti-Rb (1:200, Santa Cruz, sc-73598) diluted in Intercept Blocking Buffer (LI-COR, #927-60001) containing 0.1% Tween 20. The next day, the cells were washed with 200 μL PBS containing 0.1% Tween 20, 5×5 mins at room temperature with gentle shaking, and incubated with 50 μL secondary antibody, IRDye® 800CW Goat anti-Rabbit IgG (1:1000, LI-COR, #926-32211) and FRDye® 680RD Goat anti-Mouse IgG (1:1000, LI-COR, #926-68070), in LI-COR […] blocking buffer with 0.2% Tween 20 for 1 h at room temperature with gentle shaking. The cells were washed with 200 μL PBS containing 0.1% Tween 20, 5×5 min at room temperature with gentle shaking. The cells were washed with PBS for 5 mins. 100 μL fresh PBS was added to each well and the plates were imaged on a LI-COR Odyssey CLX plate reader.
MCF7 cells were obtained from American Type Culture Collection (ATCC, HTB-22). SW1573-CDK6 KO and SW1573-CDK4 KO cells were generated by the CRISPR-Cas9 technology. All cells were plated in 96-well plates (VWR #10062-900, or Corning #3904) in 90 uL culture medium at a density of 20,000 cells/well in the respective growth medium containing 10% FBS and 1% Penicillin Streptomycin, and then incubated at 37° C. overnight. The following day, the test compound was administered to the cells by using 1000× compound stock solution prepared in DMSO at various concentrations. 1000× compound stock solution was first diluted in culturing medium to 10×, then 10 uL compound medium was added to each well in the cell plates. After administration of the compound, the cells were then incubated at 37° C. for 24 hours. Upon completion, the cells were washed with PBS briefly. 150 uL/well of 4% formaldehyde was added and the plates were incubated at room temperature for 20 mins. The cells were washed with PBS briefly, and permeabilized with 150 uL/well of ice cold 100% methanol for 10 mins. The cells were washed with PBS briefly and blocked with 100 uL/well LI-COR blocking buffer for 1 hr at room temperature with gentle shaking. The cells were incubated overnight at 4° C. with 50 uL primary antibody rabbit anti-Phospho-Rb (Ser807/811) (1: 500, Cell Signaling, #8516) and anti-Rb (1:200, Santa Cruz, sc-73598) diluted in Intercept Blocking Buffer (LI-COR, #927-60001) containing 0.1% Tween 20. The next day, the cells were washed with 200 uL PBS containing 0.1% Tween 20, 5×5 mins at room temperature with gentle shaking, and incubated with 50 uL secondary antibody, IRDye® 800CW Goat anti-Rabbit IgG (1:1000, LI-COR, #926-32211) and IRDye®680RD Goat anti-Mouse IgG (1:1000, LI-COR, #926-68070), in LI-COR blocking buffer with 0.2% Tween 20 for 1 hr at room temperature with gentle shaking. […]

SMILES: [2H][C@H]1[C@@H](Nc2ncc(Cl)c(-c3cc(F)c4nc(C(C)(C)O)n(C(C)C)c4c3)n2)[C@H](O)[C@@H]2OC[C@H]1O2 [Compound 2, (1S,2S,3R,4S,5R)-3-((5-chloro-4-(4-fluoro-2-(2-hydroxypropan-2-yl)-1-isopropyl-1H-benzo[d]imidazol-6-yl)pyrimidin-2-yl)amino)-6,8-dioxabicyclo[3.2.1]octan-2-d-4-ol]
- GI50 (22RV1 cells): ≤ 0.12 µM

SMILES: COC(=O)N1CC[C@@H](c2nc3c(F)cc(-c4nc(N[C@@H]5C[C@H]6CO[C@H](O6)[C@H]5O)ncc4Cl)cc3n2C(C)C)C1 [Compound 4, methyl (R)-3-(6-(5-chloro-2-(((1S,3R,4S,5R)-4-hydroxy-6,8-dioxabicyclo[3.2.1]octan-3-yl)amino)pyrimidin-4-yl)-4-fluoro-1-isopropyl-1H-benzo[d]imidazol-2-yl)pyrrolidine-1-carboxylate]
- GI50 (22RV1 cells): 0.12 to 0.45 µM
- IC50 [1]: 0.04 to 0.15 µM

SMILES: CC(C)n1c([C@@H]2CCC(F)(F)C2)nc2c(F)cc(-c3nc(N[C@@H]4C[C@H]5CO[C@H](O5)[C@H]4O)ncc3Cl)cc21 [Compound 5, (1S,3R,4S,5R)-3-((5-chloro-4-(2-((R)-3,3-difluorocyclopentyl)-4-fluoro-1-isopropyl-1H-benzo[d]imidazol-6-yl)pyrimidin-2-yl)amino)-6,8-dioxabicyclo[3.2.1]octan-4-ol]
- GI50 (22RV1 cells): 0.12 to 0.45 µM
- IC50 [1]: 0.15 to 1 µM

SMILES: CC(C)n1c(C(C)(C)O)nc2c(F)cc(-c3nc(N[C@@H]4[C@H](C)[C@H]5CO[C@H](O5)[C@H]4O)ncc3Cl)cc21 [Compound 13, (1S,2S,3R,4S,5R)-3-((5-chloro-4-(4-fluoro-2-(2-hydroxypropan-2-yl)-1-isopropyl-1H-benzo[d]imidazol-6-yl)pyrimidin-2-yl)amino)-2-methyl-6,8-dioxabicyclo[3.2.1]octan-4-ol]
- GI50 (22RV1 cells): 0.12 to 0.45 µM
- IC50 [1]: 0.04 to 0.15 µM

SMILES: COC(=O)N1CC[C@@H](c2nc3c(F)cc(-c4nc(N[C@@H]5[C@H](C)[C@H]6CO[C@H](O6)[C@H]5O)ncc4Cl)cc3n2C(C)C)C1 [Compound 23, methyl (R)-3-(6-(5-chloro-2-(((1S,2S,3R,4S,5R)-4-hydroxy-2-methyl-6,8-dioxabicyclo[3.2.1]octan-3-yl)amino)pyrimidin-4-yl)-4-fluoro-1-isopropyl-1H-benzo[d]imidazol-2-yl)pyrrolidine-1-carboxylate]
- GI50 (22RV1 cells): 0.12 to 0.45 µM
- IC50 [1]: 0.04 to 0.15 µM

SMILES: CC(C)n1c(C(C)(C)O)c(C#N)c2c(F)cc(-c3nc(N[C@@H]4C[C@H]5CO[C@H](O5)[C@H]4O)ncc3Cl)cc21 [Compound 26, 6-(5-chloro-2-(((1S,3R,4S,5R)-4-hydroxy-6,8-dioxabicyclo[3.2.1]octan-3-yl)amino)pyrimidin-4-yl)-4-fluoro-2-(2-hydroxypropan-2-yl)-1-isopropyl-1H-indole-3-carbonitrile]
- GI50 (22RV1 cells): ≤ 0.12 µM
- IC50 [1]: 0.04 to 0.15 µM

SMILES: CC(C)n1c(C(C)(C)O)nc2c(F)cc(-c3nc(N[C@@H]4C[C@H]5CO[C@H](O5)[C@H]4O)ncc3F)cc21 [Compound 27, (1S,3R,4S,5R)-3-((5-fluoro-4-(4-fluoro-2-(2-hydroxypropan-2-yl)-1-isopropyl-1H-benzo[d]imidazol-6-yl)pyrimidin-2-yl)amino)-6,8-dioxabicyclo[3.2.1]octan-4-ol]
- GI50 (22RV1 cells): 0.12 to 0.45 µM
- IC50 [1]: 0.04 to 0.15 µM

SMILES: CC(C)n1c(C(C)(C)O)nc2c(F)cc(-c3nc(N[C@@H]4C[C@H]5CO[C@H](O5)[C@H]4O)ncc3C(F)F)cc21 [Compound 29, (1S,3R,4S,5R)-3-((5-(difluoromethyl)-4-(4-fluoro-2-(2-hydroxypropan-2-yl)-1-isopropyl-1H-benzo[d]imidazol-6-yl)pyrimidin-2-yl)amino)-6,8-dioxabicyclo[3.2.1]octan-4-ol]
- GI50 (22RV1 cells): 0.45 to 3 µM
- IC50 [1]: 0.15 to 1 µM

SMILES: CC1=Nc2c(F)cc(-c3nc(N[C@@H]4C[C@H]5CO[C@H](O5)[C@H]4O)ncc3Cl)cc2C12CCCC2 [Compound 32, (1S,3R,4S,5R)-3-((5-chloro-4-(7′-fluoro-2′-methylspiro[cyclopentane-1,3′-indol]-5′-yl)pyrimidin-2-yl)amino)-6,8-dioxabicyclo[3.2.1]octan-4-ol]
- GI50 (22RV1 cells): ≤ 0.12 µM
- IC50 [1]: ≤ 0.04 µM
